Assay results from patent US20250295629A1, “COMPOSITIONS AND METHODS FOR TREATING CANCERS OF THE CENTRAL NERVOUS SYSTEM (CNS), INCLUDING GLIOBLASTOMA AND CHEMORESISTANT CNS TUMORS, AND RELATED COMPOSITIONS AND METHODS FOR INHIBITING AND ELIMINATING CNS CANCER STEM CELLS” (priority 2022, published 2025).

Key:
[1] = system: yH2AX in GLUC2 and KR158 cells; assay: yH2AX staining (DNA damage marker); type: cell-based, mouse; conditions: 48 hours
Description: For immunocytochemical analysis, GLUC2, KRl 58 and GBM43 cells were plated on glass coverslips overnight. Cells were treated with medium or lucanthone for 48 hours. The medium was aspirated and cells were fixed with 4% PFA for 10 minutes. Plates were then washed 3× with 0.3% TX-100 in PBS and wells were blocked with 3% normal goat serum/0.3% TX-100 in PBS for 1 hour. Cells were stained with primary antibodies overnight (LC3, Ki67, Nestin, Olig2, SOX2, CD133, p62, Cathepsin D, yH2AX). The primary antibody was removed, and cells were again washed 3× with 0.3% TX-100 in PBS after which time cells were incubated with fluorescent secondary antibodies for an hour at room temperature. Cells were then washed 3× with PBS, counterstained with DAPI and imaged under confocal microscopy. GSC were induced to adhere to glass slides by precoating glass slides with Geltrex for an hour.

[2] = system: KR158 cells; assay: Crystal violet, dual treatment (lucanthone and TMZ); type: cell-based, mouse
Description: (§1) For dual treatment studies (lucanthone and TMZ), GLUC2 and KR158 cells were plated at a density of 2,500 and 1,000 cells per well in a 12-well plate and allowed to adhere overnight. Cells were then treated with medium, TMZ, lucanthone, or a combination for 4 days. The media were aspirated, and the cells were washed with PBS once and incubated with standard medium for 3 days. The cells were fixed with PFA and treated with 0.5% crystal violet solution as above and photographed. Then lysis solution of 10% SDS in dH2O was added to the plates overnight. To quantify relative crystal violet intensity, the absorbance of the crystal violet-containing supernatant was read under a spectrophotometer at 590 nm with a reference wavelength of 670 nm. Data are graphed as percent of control (medium only-treated cells).,

[3] = system: GLUC2 (GL261) cells; assay: as above; type: cell-based, mouse
Description: as §1

[4] = system: lysosomes and mitochondria in GBM9 and GBM43 stem-like cells; assay: Lysotracker red and DIOC63 imaging; type: cell-based, human; conditions: 3 uM, 24 hours
[5] = system: GBM43 CSC; assay: Combination with radiation or temozolomide, MTT assay; type: cell-based, human; conditions: 5 days
Description: (§2) To examine the interaction between lucanthone and ionizing radiation, 3000 GBM9 or GBM43 CSC were plated in a 96-well plate and allowed to adhere overnight. 1 hour prior to radiation, cells were treated with 1 or 3 uM lucanthone. Radiation was accomplished using a 100 kVp animal irradiator (Phillips RT-100) which irradiates at 0.75 gy per minute. After radiation, cells were incubated for 5 days, after which an MTT assay was performed.

[6] = system: GBM9 CSC; assay: as above; type: cell-based, human
Description: as §2

[7] = system: GLUC2 GSC intracranial gliomas (tumor microenvironment); assay: Immunohistochemistry of tumors from the murine glioma model; type: in vivo, mouse
Description: Gliomas were established in 3-4 month old male and female mice as described previously (3, 4, 33). GLUC2 GSC were dissociated with accutase and counted. Mice were anesthetized with 20 mg/kg avertin, a midline incision was made in the scalp, the skin retracted and a small burr hole was drilled in the skull at the following stereotactic coordinates from bregma: −lmm anteroposterior and +2 mediolateral. l×10^5 GLUC2 GSC resuspended in PBS were injected over a period of 2 minutes at a depth of 3 mm. At the end of the injection, the needle was kept in the injection site for a further 3 minutes. After needle removal, the incision was sutured and mice were placed on a heating pad until they fully recovered from anesthesia. […] All animal procedures were approved by the Stony Brook University Institutional Animal Care and Use Committee.
Lucanthone was solubilized in 10% DMSO, 40% HPCD in PBS. After confirming the presence of gliomas on day 7, mice were randomly divided to control and treatment groups, and treated with either saline or 50 mg/kg lucanthone i.p. every day from day 7 to day 20. On day 21, tumors were visualized by bioluminescent imaging, as above.
Mice were anesthetized with 20 mg/kg avertin and transcardially perfused with 30 ml PBS followed by 30 ml 4% PFA in PBS. Brains were removed and post-fixed in 4% PFA in PBS overnight. They were dehydrated for 48 hours in 30% w/v sucrose in PBS. Brains were then embedded in optimal cutting temperature compound (OCT, Tissue-Tek) and 20 μm coronal sections throughout the entire tumor were taken on a Leica cryostat (Nusslock, Germany) and collected on Superfrost plus microscope slides. To determine tumor volume, serial sections were taken from each animal and subjected to hematoxylin and eosin stain. Tumor volume was calculated as tumor area×20 μm thickness, x number of slides (34).
For immunohistochemical analysis, slides were brought to room temperature, washed 3× with 0.3% TX-100 in PBS and then blocked with 1% BSA/0.3% TX-100 in PBS for 1 hour. Slides were incubated overnight with appropriate primary antibodies (Table 1). The primary antibody was removed and slides were washed 3× 0.3% TX-100 in PBS and incubated with appropriate secondary antibodies for 1 hour. Slides were washed 3× with PBS, and counterstained with DAPI. Immunoreactivity was visualized by confocal imaging using the Leica SP8-x system, with white light and argon lasers.

[8] = system: LC3-II and p62 in GBM9 and GBM43 stem-like cells; assay: Western blot of autophagy markers in patient-derived stem-like cells; type: cell-based, human; conditions: 3 uM, 24 hours
Description: Immunoblotting was done as described previously (4). Briefly, cells were lysed in 50 mM Tris-HCl (pH 7.4) with 1% Nonidet P-40, 0.25% sodium deoxycholate, 150 mM NaCl, 1% SDS and 1 mM sodium orthovanadate. Proteins were denatured by boiling with treatment with BME. Proteins were run on SDS-page gels, transferred to PVDF membranes (Immobilon; Millipore). Membranes were washed with Tris-buffered saline with 0.1% Tween 20 and blocked in a 5% non-fat dry milk powder for 1 hour. Membranes were then probed for LC3 (1:1000), p62 (1:1000), Olig2 (1:1000), SOX2 (1:1000) CD44 (1:200), TMEMl 19 (1:1000) and B-Actin (1:2000; sigma Aldrich). Membranes were rinsed in TBS-T, probed with associated HRP-conjugated secondary antibodies and exposed to Pierce ECL substrate for 1 minute (Thermo Fisher Scientific) after which x-ray films were developed from membranes.

[9] = 1 μM lucanthone alone, 4 days then 3 days recovery
[10] = combination of lucanthone and TMZ, p<0.05, King's synergy test

SMILES: CCN(CC)CCNc1ccc(C)c2sc3ccccc3c(=O)c12 [lucanthone]
- yH2AX levels ([1]; lucanthone plus TMZ compared to TMZ alone, not statistically significant): slightly increased
- yH2AX intensity ([1]; single agent): minimal effect and not
- effect on cells (crystal violet) [2, 9]: modest effect
- crystal violet intensity [2, 10]: markedly decreased
- effect on cells (crystal violet) [3, 9]: modest effect
- crystal violet intensity [3, 10]: markedly decreased
- DIOC63 staining (healthy mitochondria) [4]: substantial reduction
- effect on lysosomes (lysotracker red) [4]: lysosome dilation
- reduction of viability ([5]; lucanthone alone): 15%
- reduction of viability ([5]; lucanthone combined with radiation): about 30%
- effect on viability ([6]; lucanthone alone): minimal effects
- reduction of viability ([6]; lucanthone together with radiation, 5 days): −45%
- CD31 intensity ([7]; 50 mg/kg vs control): diminished
- Glut1 positivity (tumor hypoxia) ([7]; 50 mg/kg vs control): minimal
- blood vessel luminal areas ([7]; 50 mg/kg vs control): substantially increased
- blood vessel size (CD31) ([7]; 50 mg/kg vs control): smaller
- blood vessel tortuosity and circularity ([7]; 50 mg/kg vs control): less tortuous and more circular
- levels of Glut4 ([7]; 50 mg/kg vs control): not affected
- HSP60 levels ([7]; 50 mg/kg vs saline): Increased levels
- Ki67 positivity ([7]; 50 mg/kg vs saline): similar
- Olig2 positivity at tumor periphery and core ([7]; 50 mg/kg vs saline): striking reduction
- SOX2 expression ([7]; 50 mg/kg vs saline): not significantly different
- yH2AX positivity ([7]; 50 mg/kg vs saline): increased
- P2RY12 levels ([7]; among treatment groups): similar
- numbers of cytotoxic T cells (CD8a+) in the center of tumors ([7]; treated versus control mice): substantial increase
- LC3-II level [8]: increase
- p62 level [8]: increase
